In US5340833A, “Urokinase inhibitors” (Eisai Co., Ltd., priority 1992, dated 1994) one finds residual urokinase activity data, which are given here for 43 compounds.

Structures can show the parent of a compound that is named as a salt.

The target in this experiment is T1, human high molecular weight urokinase (Homo sapiens, UniProt P00749).
T1 construct: human high molecular weight urokinase; purchased American Diagnostica, Greenwich, Conn
Put plainly: Urokinase Direct Assay. The class given is biochemical. The note with it: read-out: uPA Direct: percentage of residual urokinase activity relative to inhibitor-free controls; heading: uPA Direct: percentage of residual urokinase activity relative to inhibitor-free controls; inhibitor concentration of 1 mM. The procedure:
(i) A direct chromogenic assay in which urokinase cleaves a synthetic tripeptide p-nitroanilide (pNA) urokinase substrate.
Incubations were carried out at 37° C. for approximately 2 hours or until adequate yellow color developed. Color was quantitated by measuring absorbance at 405 nm (A405) using a Titertek Multiskan MCC/340 MK II microtiter plate spectrophotometer.
As to `N=C(N)c1cc2cc(F)ccc2s1` [Compound 101, 5-Fluorobenzo[b]thiophene-2-carboxamidine hydrochloride], the residual urokinase activity at 1000 µM turned out to be 12.7%.

In the case of `N=C(N)c1cc2cc(Cl)ccc2s1` [Compound 102, 5-Chlorobenzo[b]thiophene-2-carboxamidine hydrochloride], the residual urokinase activity at 1000 µM is 2.9%.

Turning to `Cc1ccc2sc(C(=N)N)cc2c1` [Compound 105, 5-Methylbenzo[b]thiophene-2-carboxamidine hydrochloride], the residual urokinase activity at 1000 µM is 3.4%.

Consider `CCc1ccc2sc(C(=N)N)cc2c1` [Compound 106, 5 -Ethylbenzo[b]thiophene-2-carboxamidine hydrochloride], for which the residual urokinase activity at 1000 µM is 3.6%.

Consider `CCCc1ccc2sc(C(=N)N)cc2c1` [Compound 107, 5-Propylbenzo[b]thiophene-2-carboxamidine hydrochloride], for which the residual urokinase activity at 1000 µM amounted to 2.6%.

On to `CCCCc1ccc2sc(C(=N)N)cc2c1` [Compound 108, 5-Butylbenzo[b]thiophene-2-carboxamidine hydrochloride], for which the residual urokinase activity at 1000 µM came to 3.4%.

With `CC(C)CCc1ccc2sc(C(=N)N)cc2c1` [Compound 110, 5-(3-Methylbutyl)benzo[b]thiophene-2-carboxamidine hydrochloride], the residual urokinase activity at 1000 µM was 4.2%.

In the case of `N=C(N)c1cc2cc(CCC3CC3)ccc2s1` [Compound 112, 5-(2-Cyclopropylethyl)benzo[b]thiophene-2-carboxamidine hydrochloride], the residual urokinase activity at 1000 µM turned out to be 3.3%.

Consider `N=C(N)c1cc2cc(CCO)ccc2s1` [Compound 113, 5-(2-Hydroxyethyl)benzo[b]thiophene-2-carboxamidine hydrochloride], for which the residual urokinase activity at 1000 µM came out at 2.9%.

`C=C(C)c1ccc2sc(C(=N)N)cc2c1` [Compound 115, 5-(1-Methylethenyl)benzo[b]thiophene-2-carboxamidine hydrochloride]: the residual urokinase activity at 1000 µM came to 1.2%.

For the compound `CC=Cc1ccc2sc(C(=N)N)cc2c1` [Compound 116, 5-(E/Z-Prop-1-enyl)benzo[b]thiophene-2-carboxamidine hydrochloride], the residual urokinase activity at 1000 µM stood at 1.6%.

Regarding `CCC=Cc1ccc2sc(C(=N)N)cc2c1` [Compound 117, 5-(E/Z-But-1-enyl)benzo[b]thiophene-2-carboxamidine hydrochloride], the residual urokinase activity at 1000 µM is 1.1%.

Regarding `CCC(C)=Cc1ccc2sc(C(=N)N)cc2c1` [Compound 118, 5-(E/Z-2-Methylbut-1-enyl)benzo[b]thiophene-2-carboxamidine hydrochloride], the residual urokinase activity at 1000 µM worked out at 1.2%.

Consider `CC(C)C=Cc1ccc2sc(C(=N)N)cc2c1` [Compound 119, 5-(E/Z-3-Methylbut-1-enyl)benzo[b]thiophene-2-carboxamidine hydrochloride], for which the residual urokinase activity at 1000 µM was found to be 4.9%.

On to `C#Cc1ccc2sc(C(=N)N)cc2c1` [Compound 123, 5-(Ethynyl)benzo[b]thiophene-2-carboxamidine hydrochloride], for which the residual urokinase activity at 1000 µM came out at 2.5%.

In the case of `N=C(N)c1cc2cc(-c3cccnc3)ccc2s1` [Compound 125, 5-(Pyrid-3-yl)benzo[b]thiophene-2-carboxamidine hydrochloride], the residual urokinase activity at 1000 µM is 3.6%.

On to `N=C(N)c1cc2cc(-c3cccs3)ccc2s1` [Compound 127, 5-(Thien-2-yl)benzo[b]thiophene-2-carboxamidine hydrochloride], for which the residual urokinase activity at 1000 µM worked out at 1.1%.

Regarding `N=C(N)c1cc2cc(C(F)(F)F)ccc2s1` [Compound 129, 5-(Trifluoromethyl)benzo[b]thiophene-2-carboxamidine hydrochloride], the residual urokinase activity at 1000 µM turned out to be 8.2%.

In the case of `N=C(N)c1cc2cc(C=O)ccc2s1` [Compound 130, 5-Formylbenzo[b]thiophene-2-carboxamidine hydrochloride], the residual urokinase activity at 1000 µM was found to be 6.8%.

In the case of `N=C(N)c1cc2cc(CO)ccc2s1` [Compound 131, 5-(Hydroxymethyl)benzo[b]thiophene-2-carboxamidine hydrochloride], the residual urokinase activity at 1000 µM stood at 6.3%.

Regarding `Cc1ccc2sc(C(=N)N)cc2c1Br` [Compound 202, 4-Bromo-5-methylbenzo[b]thiophene-2-carboxamidine hydrochloride], the residual urokinase activity at 1000 µM was found to be 3%.

For `N=C(N)c1cc2c(Cl)c(I)ccc2s1` [Compound 203, 4-Chloro-5-iodobenzo[b]thiophene-2-carboxamidine hydrochloride], the residual urokinase activity at 1000 µM amounted to 3.5%.

Consider `N=C(N)c1cc2c(ccc3ccccc32)s1` [Compound 205, Naphtho[2,1-b]thiophene-2-carboxamidine hydrochloride], for which the residual urokinase activity at 1000 µM stood at 0.27%.

With `N=C(N)c1cc2ccc(I)cc2s1` [Compound 301, 6-Iodobenzo[b]thiophene-2-carboxamidine hydrochloride], the residual urokinase activity at 1000 µM was found to be 13.7%.

For the compound `N=C(N)c1cc2cccc(I)c2s1` [Compound 302, 7-Iodobenzo[b]thiophene-2-carboxamidine hydrochloride], the residual urokinase activity at 1000 µM stood at 10.8%.

On to `Cc1ccc2cc(C(=N)N)sc2c1` [Compound 303, 6-Methylbenzo[b]thiophene-2-carboxamidine hydrochloride], for which the residual urokinase activity at 1000 µM was 12%.

In the case of `Cc1c(C(=N)N)sc2ccccc12` [Compound 304, 3-Methylbenzo[b]thiophene-2-carboxamidine hydrochloride], the residual urokinase activity at 1000 µM is 75%.

Consider `N=C(N)c1sc2ccccc2c1O` [Compound 305, 3-Hydroxybenzo[b]thiophene-2-carboxamidine hydrochloride], for which the residual urokinase activity at 1000 µM is greater than 90%.

Consider `N=C(N)c1sc2ccccc2c1N` [Compound 306, 3-Aminobenzo[b]thiophene-2-carboxamidine hydrochloride], for which the residual urokinase activity at 1000 µM came out at 41%.

Turning to `N=C(N)c1cc2c(F)cc(Br)cc2s1` [Compound 308, 4-Fluoro-6-bromobenzo[b]thiophene-2-carboxamidine hydrochloride], the residual urokinase activity at 1000 µM amounted to 14.5%.

As to `COc1ccc(Br)c2sc(C(=N)N)cc12` [Compound 309, 7-Bromo-4-methoxybenzo[b]thiophene-2-carboxamidine hydrochloride], the residual urokinase activity at 1000 µM came out at 18%.

`COc1ccc(F)c2cc(C(=N)N)sc12` [Compound 310, 4-Fluoro-7-methoxybenzo[b]thiophene-2-carboxamidine hydrochloride]: the residual urokinase activity at 1000 µM is greater than 90%.

In the case of `COc1c(Br)cc(Br)c2sc(C(=N)N)cc12` [Compound 311, 5,7-Dibromo-4-methoxybenzo[b]thiophene-2-carboxamidine hydrochloride], the residual urokinase activity at 1000 µM came to 18%.

Turning to `N=C(N)c1cc2cc3ccccc3cc2s1` [Compound 313, Naphtho[2,3-b]thiophene-2-carboxamidine hydrochloride], the residual urokinase activity at 1000 µM was 11%.

`N=C(N)c1ccc2sccc2c1` [Compound 314, Benzo[b]thiophene-5-carboxamidine hydrochloride]: the residual urokinase activity at 1000 µM was 43%.

For `N=C(N)c1ccc2ccsc2c1` [Compound 315, Benzo[b]thiophene-6-carboxamidine hydrochloride], the residual urokinase activity at 1000 µM amounted to 21%.

On to `N=C(N)c1csc2ccccc12` [Compound 316, Benzo[b]thiophene-3-carboxamidine hydrochloride], for which the residual urokinase activity at 1000 µM came to 80%.

For `N=C(N)c1cccc2sccc12` [Compound 317, Benzo[b]thiophene-4-carboxamidine hydrochloride], the residual urokinase activity at 1000 µM came out at 90%.

Turning to `N=C(N)c1cc2cccnc2s1` [Compound 318, Pyrido[2,3-b]thiophene-2-carboxamidine hydrochloride], the residual urokinase activity at 1000 µM turned out to be 55%.

`N=C(N)Nc1cc2ccccc2s1` [Compound 319, 2-Guanidinobenzo[b]thiophene hydrochloride]: the residual urokinase activity at 1000 µM was greater than 90%.

For the compound `N=C(N)NC(=O)c1cc2ccccc2s1` [Compound 320, N-Amidino benzo[b]thiophene-2-carboxamide hydrochloride], the residual urokinase activity at 1000 µM amounted to 84%.

As for `N=C(N)c1cc2sccc2s1` [Compound 322, Thieno[3,2-b]thiophene-2-carboxamidine hydrochloride], the residual urokinase activity at 1000 µM stood at 2.7%.

In the case of `N=C(N)c1cc2cscc2s1` [Compound 323, Thieno[3,4-b]thiophene-2-carboxamidine hydrochloride], the residual urokinase activity at 1000 µM is 5.3%.
